Each structure is given as a SMILES string.

Test [1] concerns tumor-infiltrating immune cells. Briefly: Flow cytometric analysis of immune cells in tumor and organs. Type of test: in vivo, mice. The method, then:
(FIGS. 11A-B) Single cells were conducted from MC38 (FIG. 11A) or TC-1 (FIG. 11B) tumor tissues after 3 days of β-lap treatment. The frequency of CD11b+ Gr1+ cells were then analyzed by flow cytometry. (FIGS. 11C-D) C57BL/6 WT mice (n=5/group) were inoculated subcutaneously (s.c.) with 6×10^5 MC38 (FIG. 11C) or 1×10^5 TC-1 (FIG. 11D) cells and treated intratumorally (i.t.) with 0.3 (mg) of β-lap or vehicle on day 9, day 12, and day 15. Anti-Ly6G blocking Ab (200 μg) were intraperitoneally administered twice a week, starting on day 8. Tumor growth was monitored twice a week. Data are shown as mean±SEM from two to three independent experiments. **P<0.01, ***P<0.001, ****P<0.0001 determined by two-way ANOVA.
(FIG. 18A) B16 NQO1 #1 cells were subcutaneously transplanted into C57BL/6 WT and Rag1KO mice (n=5/group), respectively. Tumor bearing mice were treated with β-lap (0.3 mg, i.t.) every other day for four times. (FIG. 18B) Changes of the immune cells in the tumor microenvironment 7 days after β-lap treatment. […] 7 days after the last treatment, tumor tissue was removed and digested, and immune cells were analyzed with flow cytometer (unpaired student t-test was used to analyze the significance of changes, *P<0.05, **P<0.01). […]
6×10^5 MC38 cells were subcutaneously transplanted into C57BL/6 mice (n=3/group). […] (FIG. 23B) Quantification of immune populations from vehicle and IB-DNQ treated tumors. […] CFSE labeled splenocytes were treated with lethal dose IB-DNQ for 4 h followed by washing and stimulation with anti-CD3 (1 μg/ml) and anti-CD28 (2 μg/ml) for 48 h, proliferative CD8 T cells were then analyzed by flow cytometry assay. […] 24 h later, cell death was analyzed by flow cytometry. […]
Naïve (n=5/group) and IB-DNQ-cured MC38 tumor-free (n=7/group) C57BL/6 mice were re-challenged subcutaneously with 3×10^6 MC38 cells on the opposite site from the primary tumor 60 days after complete rejection. […] (FIG. 26F) DCs from LNs of tumor-free (TF) or tumor-bearing mice were stimulated with antigen induced by IB-DNQ (1 μM) for 5 h, then CD44 expression on DCs was assessed.

The next test deals with ROS. Briefly: Cellular ROS / H2O2 detection. It counts as cell-based, murine. The following applies: for ROS level: 3 hr, DCFDA. As for the experimental part:
(FIG. 1A) NQO1 positive tumor cell lines MC38, TC-1 and Ag104Ld and NQO1 negative cell lines Panc02 and B16 grown in 48-well plates were treated with β-lap (0-8 μM) for a 3 hr followed by washing and replacing medium. Cell viability was determined by Sulforhodamine B (SRB) Assay 4 days later. […] (FIG. 1C) MC38 cells with CRISPR-based NQO1 Knockout (MC38 NQO1KO #5) planted in 96-well plates were exposed to β-lap for 3 hr and cell survival was assessed 48 hr later. […] (FIG. 1E) MC38 cells were exposed to a lethal dose of β-lap (4 μM) for indicated times, then stained with 7-AAD and Annexin V followed by flow cytometry analysis. […] (FIG. 1H) MC38 and B16 NQO1 #1 cells were exposed to β-lap for a 3 hr. Catalase (1000 U/ml) was added and cell survival was assessed 48 hr later. (FIG. 1I) C57BL/6 mice (n=5/group) were transplanted with MC38 cells and treated with β-lap (0.03 mg, 0.1 mg or 0.3 mg, intratumorally; or 25 mg/kg, i.v.) every other day for four times. (FIG. 1J) C57BL/6 mice were transplanted with MC38 cells (NQO1 WT or KO, n=5/group) and treated with β-lap (0.3 mg, i.t.) every other day for four times. Tumor growth was monitored twice a week.
(FIG. 8A) NQO1 expression in multiple murine tumor lines was immunoblotted as indicated. (FIG. 8B) NQO1^+ cells (MC38, TC-1, and Ag104Ld) and NQO1^− cells (B16 and Pan02) were treated for 3 h with β-lap±DIC (50 μM). Drugs were removed and survival assessed 5 days later. (FIG. 8C) Relative H2O2 levels were assessed in various cells treated with β-lap for 3 h at the indicated doses using CellRox-Glo. Values were normalized to DMSO-treated control cells. (FIG. 8D) TC-1 cells exposure to β-lap for 12 h, later PARP-1 and Caspase-3 levels were analyzed by western blotting assay. […]
(FIG. 21A) Viability of murine cell lines following IB-DNQ treatment for 4 h. […] (FIGS. 21D-E) DNA double strand break was assessed via comet assay (FIG. 21D) and γH2AX foci/nuclei immunofluorescence (FIG. 21E). (FIG. 21F) MC38 cell death after a 4 h exposure to IB-DNQ was determined by 7AAD and Annexin V staining using flow cytometry analysis.

Turning to `CC1(C)CCC2=C(O1)c1ccccc1C(=O)C2=O` [β-lap, β-lapachone], the “T cells in treated tumors” value in test [1] (MC38, 7 days after β-lap 0.3 mg i.t. two times) is “increase in CD4^+ and CD8^+ T cells”. In test [1] (MC38-OVA, 12 days after initial treatment), the “CD45+ cells, CD8+ T cells and CD8+ T cell:Treg cell ratio in tumor tissues” value was “significant increase”. In test [1] (after 3 days of β-lap treatment), the “tumor-infiltrating neutrophils (CD11b+Gr1+)” value is listed as “significantly increased”. Also, in the test on ROS (NQO1+ cells but not NQO1− cells, 3 h exposure, CellRox-Glo), the H2O2 level result is “High level of H2O2”. Besides, the figures for the ROS level result in the test with ROS (NQO1 null lines) and with ROS (NQO1 positive murine tumor line) were “much less” and “high level of ROS”, respectively.

The values are drawn from patent US20220160703A1, “TUMOR-SELECTIVE COMBINATION THERAPY” (The Board of Regents of The University of Texas System, priority 2019, published 2022).
